Data on 1 molecule can be found in US11732560B1, “Nitrate treatment for injectivity improvement” (SAUDI ARABIAN OIL COMPANY, priority 2022, dated 2023).

In one assay the test system is NRSOB. The protocol:
(§1) A field experiment was conducted in an oil field water injection system to determine the effect of nitrate (NO3^-) for controlling sulfate reducing bacteria (SRB) in oilfield operations, and microbial influence corrosion (MIC) for surface pipelines.

Another assay concerns sulfide production. The procedure: as §1
The subject of assay [1] is Nitrate Utilizing Bacterial (NUB). Description: Field trial microbiological monitoring: planktonic NUB population. Format: cell-based, nitrate utilizing bacteria. The protocol: as §1
The test system of assay [2] is sulfate reducing bacteria (SRB).
Experimental: The second injection rate, 23 mg/l, was maintained for three weeks.

The structures appear in SMILES notation. Where two headings read alike, the source gives them in different places.

As to `O=[N+]([O-])O` [nitrate], the NRSOB numbers in the assay on NRSOB (nitrate dose reduced, decreased from 10^6) is given as 10^4 per ml; in the assay with NRSOB (over treatment with nitrate at 45 mg/L, increased from 10^3), 10^6 /ml. The results for the sulfide level in the assay with sulfide production (nitrate 11 mg/L) and with sulfide production (nitrate 23 mg/l) were 6.7 mg/L and 8 mg/L, respectively. Besides, the sulfide concentration in the assay on sulfide production (nitrate ion 45 mg/L, 15.8-17.3 ppm detected beforehand) is reported as 8.3 ppm. Further, the NUB population is 104 NUB/ml in assay [1] (initially detected, start of nitrate treatment) and ~10^6 NUB/ml in assay [1] (over nitrate treatment with 45 mg/L). Moreover, in assay [1] (nitrate reduced to 23 mg/L and 11 mg/L, over 7 days and after 56 days), the “planktonic NUB population” value stood at 106 mL⁻¹. In addition, the SRB activities in assay [2] (increase observed later after 23 mg/l period, maintained) is listed as 101 SRB/ml; in assay [2] (nitrate 23 mg/l, at the end of three weeks), “below the detection limits”. For the same molecule, the “minimum SRB achieved” value in assay [2] (nitrate 11 mg/l) is listed as 10^1 bacteria/ml. Further, the “drop in SRB activities” value in assay [2] (nitrate 45 mg/l, 10^2 SRB/ml before injection) amounted to 50%.
